Assays:
GATA1 = experiment: GATA Assay: GATA Translucent Reporter Vector luciferase assay in transfected HepG2 cells; format: cell-based, Human; conditions: luciferase normalized to total protein
Method: Human HepG2 (ATCC) cells were grown in Eagle's Minimum Essential Media (MEM) containing 10% heat inactivated Fetal Bovine Serum (FBS) (Invitrogen) and 5 mL Penicillin-Streptomycin (Invitrogen) in T75 flasks (Corning) in a 37° C./5% CO2 tissue culture incubator (Thermo Electron Corporation) prior to the study. 96-well plates (Corning) were seeded in MEM containing 10% FBS to yield ˜50% confluency. The following day, cells were transfected using FuGENE 6 transfection reagent (Roche) and […] GATA Translucent Reporter Vector (Panomics) according the manufacturer's (Roche) protocol and incubated for about 10-19 h. The next day, the cells were treated with equal volumes of vehicle, dimethyl sulfoxide (DMSO) (Hybri-Max Sterile Filtered Sigma Aldrich) or compounds of formula (I) (in DMSO) diluted in MEM containing 1% FBS. The treated cells were incubated about 8-19 h. The next day the treatment media was removed and the cells were lysed and assayed for luciferase activity using the luciferase assay system (Promega) and using the Envision plate reader (Perkin Elmer). The lysates were also used to measure total protein content with the MicroBCA protein assay kit (Pierce) using the Multiskan Ascent plate reader at 570 nm. Luciferase values were normalized to total protein and fold induction was calculated.
Compounds that show an increase of ≧40% in luciferase levels at ≦20 μm concentration were considered as GATA activators.

Row | melting point [°C] | Compound | GATA1 Activation (Fold Change Vs Control) (GATA1; 5μ compound) | GATA1 Activation (Fold Change Vs Control) (GATA1; 10μ compound)
1 | 321 to 325 | O=C(O)C1(c2ccc(Nc3nc(C4CCCC4)nc4c3CCC4)cc2)CCCC1 [Example 1, 1-[4-(2-cyclopentyl-6,7-dihydro-5H-cyclopentapyrimidin-4-ylamino)-phenyl]-cyclopentanecarboxylic acid] |  | 
2 | 279 to 281 | O=C(O)C1(c2ccc(Nc3nc(N4CCOCC4)nc4c3CCC4)cc2)CCC1 [Example 4, 1-[4-(2-morpholin-4-yl-6,7-dihydro-5H-cyclopentapyrimidin-4-ylamino)-phenyl]-cyclobutanecarboxylic acid] | 2.45 | 3.45
3 | 165 to 167 | O=C(O)C1(c2ccc(Nc3nc(N4CCC(O)CC4)nc4c3CCC4)cc2)CCC1 [Example 5, 1-{4-[2-(4-hydroxy-piperidin-1-yl)-6,7-dihydro-5H-cyclopentapyrimidin-4-ylamino]-phenyl}-cyclobutanecarboxylic acid] |  | 
4 | 245 to 247 | O=C(O)C1(c2ccc(Nc3nc(N4CCCC4)nc4c3CCC4)cc2)CCC1 [Example 6, 1-[4-(2-pyrrolidin-1-yl-6,7-dihydro-5H-cyclopentapyrimidin-4-ylamino)-phenyl]-cyclobutanecarboxylic acid] |  | 
5 |  | Cn1cc(-c2nc3c(c(Nc4ccc(C5(C(=O)O)CCC5)cc4)n2)CCC3)cn1 [Example 7, 1-{4-[2-(1-methyl-1H-pyrazol-4-yl)-6,7-dihydro-5H-cyclopentapyrimidin-4-ylamino]-phenyl}-cyclobutanecarboxylic acid] | 1.79 | 2.09
6 |  | CC(=O)c1ccc(-c2nc3c(c(Nc4ccc(C5(C(=O)O)CCC5)cc4)n2)CCC3)cc1 [Example 9, 1-{4-[2-(4-acetyl-phenyl)-6,7-dihydro-5H-cyclopentapyrimidin-4-ylamino]-phenyl}-cyclobutanecarboxylic acid] | 2.90 | 3.50
7 |  | CC(C)(C)Nc1nc(Nc2ccc(C3(C(=O)O)CCCC3)cc2)nc2c1CCC2 [Example 10, 1-[4-(4-tert-butylamino-6,7-dihydro-5H-cyclopentapyrimidin-2-ylamino)-phenyl]-cyclopentanecarboxylic acid] | 2.07 | 2.43
8 |  | O=C(O)C1(c2ccc(Nc3nc(Nc4cccc(F)c4)nc4c3CCC4)cc2)CCC1 [Example 12, 1-{4-[2-(3-fluoro-phenylamino)-6,7-dihydro-5H-cyclopentapyrimidin-4-ylamino]-phenyl}-cyclobutanecarboxylic acid] | 3.22 | 3.38
9 |  | O=C(O)C1(c2ccc(Nc3nc(NC4CCCC4)nc4c3CCC4)cc2)CCC1 [Example 13, 1-[4-(2-cyclopentylamino-6,7-dihydro-5H-cyclopentapyrimidin-4-ylamino)-phenyl]-cyclobutanecarboxylic acid] | 1.94 | 1.67

— patent US7989463B2, “Biccyclic compounds as GATA modulators” (Dr. Reddy's Laboratories Limited, priority 2008, dated 2011)
